In publication PMC10403574, “Discovery of a pyrrole-pyridinimidazole derivative as novel SIRT6 inhibitor for sensitizing pancreatic cancer to gemcitabine” (Cell Death & Disease, 2023):

How the values were obtained:
Format in all cases: biochemical
[1] = target: SIRT2 (Homo sapiens, UniProt Q8IXJ6); assay: Deacetylation activity selectivity, SIRT2
Description: Fluor-De-Lys (FDL) assays were used for the examination of the deacetylation activities of sirtuins as described previously. For the detection of SIRT6 activity, the 50-μL reaction mixture contained 5 μM SIRT6, 2.5 mM NAD^+ (β-Nicotinamide adenine dinucleotide hydrate, Sigma, N1636), 75 μM RHKK-Ac-AMC (GL Biochem, Shanghai), compounds/DMSO, and assay buffer. The reactions were incubated at 37 °C for 2 h, added 50 μL stop solution (40 mM nicotinamide, 6 mg/mL trypsin) at 25 °C for 30 min. Fluorescence intensity was measured at an excitation wavelength of 360 nm and an emission wavelength of 460 nm. IC50 values were calculated in GraphPad Prism version 8.00.
(§1) Based on the above results, 8a was further investigated in this study. […] To further evaluate the selectivity of 8a for SIRT6, we examined the effect of 8a on the deacetylation activity of other HDAC family members, including HDAC1-HDAC11, SIRT1-SIRT3 and SIRT5. […] Furthermore, to confirm binding of 8a to SIRT6 in cells, we carried out the cellular thermal shift assay (CETSA). The CETSA approach builds on the thermal shift assay concept where ligand binding to its target protein enhances the target protein stability. We observed that the thermal stability of SIRT6 increased after 8a treatment (Figs. 2c, d).

[2] = target: HDAC4 (Homo sapiens, UniProt P56524); assay: Deacetylation activity selectivity, HDAC4
Chain of HDAC4 (P56524 whole entry, species assumed): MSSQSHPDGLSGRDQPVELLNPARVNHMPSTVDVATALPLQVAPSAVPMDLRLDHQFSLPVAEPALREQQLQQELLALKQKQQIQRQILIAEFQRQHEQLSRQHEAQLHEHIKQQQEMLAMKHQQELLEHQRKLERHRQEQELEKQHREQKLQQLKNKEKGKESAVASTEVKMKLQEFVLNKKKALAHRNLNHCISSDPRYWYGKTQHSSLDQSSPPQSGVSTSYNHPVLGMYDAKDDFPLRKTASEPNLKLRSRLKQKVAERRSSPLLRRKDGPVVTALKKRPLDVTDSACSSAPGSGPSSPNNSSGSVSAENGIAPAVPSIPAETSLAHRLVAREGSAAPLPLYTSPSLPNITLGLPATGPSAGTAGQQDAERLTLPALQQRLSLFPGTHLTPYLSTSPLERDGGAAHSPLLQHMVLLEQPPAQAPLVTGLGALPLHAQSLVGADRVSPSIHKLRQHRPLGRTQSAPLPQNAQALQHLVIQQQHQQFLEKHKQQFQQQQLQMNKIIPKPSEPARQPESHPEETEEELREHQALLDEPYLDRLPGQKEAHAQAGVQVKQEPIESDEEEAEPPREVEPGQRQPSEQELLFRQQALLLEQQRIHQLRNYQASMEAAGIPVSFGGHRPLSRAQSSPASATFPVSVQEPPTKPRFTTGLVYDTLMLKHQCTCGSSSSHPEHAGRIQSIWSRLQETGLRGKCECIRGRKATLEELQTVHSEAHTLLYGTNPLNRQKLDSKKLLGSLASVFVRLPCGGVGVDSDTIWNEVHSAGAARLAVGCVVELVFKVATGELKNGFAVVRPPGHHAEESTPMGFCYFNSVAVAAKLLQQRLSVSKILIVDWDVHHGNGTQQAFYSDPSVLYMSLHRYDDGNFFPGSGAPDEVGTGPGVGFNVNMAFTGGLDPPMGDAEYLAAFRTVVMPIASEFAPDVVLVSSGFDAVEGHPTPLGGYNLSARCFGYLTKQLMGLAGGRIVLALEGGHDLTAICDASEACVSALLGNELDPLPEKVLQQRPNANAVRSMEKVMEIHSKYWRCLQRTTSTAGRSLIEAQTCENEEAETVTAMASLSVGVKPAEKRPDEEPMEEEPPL
Description: as §1

[3] = target: HDAC9 (Homo sapiens, UniProt Q9UKV0); assay: Deacetylation activity selectivity, HDAC9
Chain of HDAC9 (Q9UKV0 whole entry, species assumed): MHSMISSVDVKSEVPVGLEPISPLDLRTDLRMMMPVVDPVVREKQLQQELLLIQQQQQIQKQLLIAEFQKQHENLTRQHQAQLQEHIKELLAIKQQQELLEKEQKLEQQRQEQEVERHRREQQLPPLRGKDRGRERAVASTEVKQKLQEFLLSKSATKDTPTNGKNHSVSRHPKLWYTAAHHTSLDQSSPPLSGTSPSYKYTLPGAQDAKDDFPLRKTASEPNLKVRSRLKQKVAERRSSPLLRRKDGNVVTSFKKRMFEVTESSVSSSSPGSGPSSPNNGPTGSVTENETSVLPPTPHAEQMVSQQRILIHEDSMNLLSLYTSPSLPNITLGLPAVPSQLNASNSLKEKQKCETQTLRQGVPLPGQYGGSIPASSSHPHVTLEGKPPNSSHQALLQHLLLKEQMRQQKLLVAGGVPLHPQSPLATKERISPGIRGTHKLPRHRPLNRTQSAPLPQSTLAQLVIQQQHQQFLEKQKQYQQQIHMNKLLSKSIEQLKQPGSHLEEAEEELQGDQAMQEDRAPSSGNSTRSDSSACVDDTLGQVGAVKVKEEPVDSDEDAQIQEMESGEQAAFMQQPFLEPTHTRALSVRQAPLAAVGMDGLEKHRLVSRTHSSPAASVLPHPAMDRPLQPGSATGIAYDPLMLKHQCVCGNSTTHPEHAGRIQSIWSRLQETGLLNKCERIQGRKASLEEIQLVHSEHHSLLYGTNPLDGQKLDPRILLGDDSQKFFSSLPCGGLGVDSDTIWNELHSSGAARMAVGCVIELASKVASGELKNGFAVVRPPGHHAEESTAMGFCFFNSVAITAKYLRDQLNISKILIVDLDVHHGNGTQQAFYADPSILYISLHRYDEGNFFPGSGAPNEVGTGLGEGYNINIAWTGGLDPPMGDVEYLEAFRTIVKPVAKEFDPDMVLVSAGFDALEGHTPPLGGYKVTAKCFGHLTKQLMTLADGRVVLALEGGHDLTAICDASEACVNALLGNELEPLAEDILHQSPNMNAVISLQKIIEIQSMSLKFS
Description: as §1

[4] = target: SIRT6 (Homo sapiens, UniProt Q8N6T7); assay: Fluor-De-Lys (FDL) SIRT6 deacetylation assay; design: The human full-length SIRT6 gene was inserted into the prokaryotic expression vector (pET-28a (+)); inferred from the pET-28a(+) vector, Ni-NTA purification and Ni-NTA biosensor loading); made in house; host or cells: Escherichia coli BL21 (DE3)
Chain of SIRT6 (Q8N6T7 whole entry): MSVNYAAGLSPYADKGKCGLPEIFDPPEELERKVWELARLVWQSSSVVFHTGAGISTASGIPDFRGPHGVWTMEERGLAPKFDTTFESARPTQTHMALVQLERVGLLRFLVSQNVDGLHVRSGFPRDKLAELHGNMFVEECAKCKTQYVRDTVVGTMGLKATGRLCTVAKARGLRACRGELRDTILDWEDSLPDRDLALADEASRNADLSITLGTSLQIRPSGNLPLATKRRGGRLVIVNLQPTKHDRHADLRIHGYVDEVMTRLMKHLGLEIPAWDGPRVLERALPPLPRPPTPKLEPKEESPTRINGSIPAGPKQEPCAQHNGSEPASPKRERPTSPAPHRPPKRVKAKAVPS

[5] = Lineweaver–Burk plot, RHKK-Ac-AMC and NAD+ substrates

Chain of SIRT2 (Q8IXJ6 whole entry, species assumed): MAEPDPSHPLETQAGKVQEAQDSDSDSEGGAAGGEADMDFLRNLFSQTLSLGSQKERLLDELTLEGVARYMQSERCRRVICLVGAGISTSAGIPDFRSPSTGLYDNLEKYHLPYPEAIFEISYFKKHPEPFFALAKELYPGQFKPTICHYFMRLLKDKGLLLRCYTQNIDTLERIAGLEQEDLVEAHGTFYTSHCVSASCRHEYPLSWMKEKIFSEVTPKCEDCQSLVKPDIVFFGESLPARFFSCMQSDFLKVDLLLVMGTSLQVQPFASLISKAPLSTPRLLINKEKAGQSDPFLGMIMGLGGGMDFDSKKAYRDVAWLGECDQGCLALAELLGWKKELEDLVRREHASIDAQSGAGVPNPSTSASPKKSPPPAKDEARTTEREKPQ

Br.CN(C)C(SCCCCCCn1cnc2c(-c3cc(Br)c(Br)[nH]3)nccc21)=[N+](C)C.[Cl-] [Compound 8a]
IC50 [1]: 92.2 ± 1.95 µM | IC50 [2]: > 200 µM | IC50 [3]: > 200 µM | Km [4, 5]: did not alter | Vmax [4, 5]: obviously decreased | inhibition mode ([4]; competition and enzymatic kinetic assays): non-competitive inhibitor
